This note sets out measurements from patent US9910031B2, “Compositions and methods for modulating c-Rel-dependent cytokine production” (Synta Pharmaceuticals Corporation, priority 2003, dated 2018).

What all share (assay type): cell-based, human
One assay concerns ICSBP. As to the kind of experiment: Western blot of ICSBP in THP-1 nuclear extracts (Ets-2 DNA element beads). The text has this: (§1) Of the transcription factors that have been analyzed, two factors, ICSBP and c-Rel, seem to be affected by Compound 1/Compound 2 treatment. ICSBP binds indirectly to the Ets-2 site. The primary NFκB trans-activator for IL-12 is the c-Rel/p50 heterodimer. Other dimers (p65/p50 and p50/p50) either lack activity or have inhibitory functions. Thus, c-Rel plays a role in IL-12 transcription as a result of both activation through NFκB and its interaction with ICSBP. […] The membranes were blocked with 5% milk in TBST buffer and then incubated with anti-c-Rel, anti-p65, anti-p50, anti-ICSBP or anti-PU-1 antibody (all the antibodies were purchased from Santa Cruz) at a dilution of 1:500 for 1 h at room temperature or overnight at 4° C. The membranes were washed and incubated with Horseradish Peroxidase-conjugated anti-rabbit IgG or anti-mouse IgG (Amersham, England) at a dilution of 1:2000 at room temperature for 1 h.
The transcription factor ICSBP binds to the Ets-2 element indirectly through binding to PU-1. Nuclear extracts were bound to Ets-2 DNA element beads, the beads isolated to separate bound from free protein, and the proteins analyzed on Western blots using antibodies to either ICSBP or PU-1. Conjugation of Ets-2 DNA to beads was accomplished by the following method. Biotinylated DNA fragment encompassing the IL-12 p40 Ets-2 site (−292 to −196) were synthesized from the 1.3 kb wild-type human IL-12 p40 reporter by PCR using a biotinylated primer as detailed in The Journal of Immunology, 2000, vol 165. pages 271-279. PCR products were purified by the Qiaquick Kit (Qiagen, Chatsworth, Calif.). Two μg of biotinylated DNA were conjugated to 100 μl of streptavidin-hound magnetic beads (Dynabeads, M280, Dynal, Lake Success, N.Y.) in buffer containing 10 mM Tris-HCL, pH 8.0, 1 mM EDTA, 0.1 M NaCl. […] Eluted materials were separated by 10% SDS-PAGE and detected by immunoblot analysis using anti-ICSBP or anti-PU-1 antibody.
(In western blotting, separated proteins are transferred to a membrane and probed.)

The test system of another assay is PU-1. As to the kind of experiment: Western blot of PU-1 in THP-1 nuclear extracts (Ets-2 DNA element beads).
Text: as §1
The transcription factor ICSBP binds to the Ets-2 element indirectly through binding to PU-1. Nuclear extracts were bound to Ets-2 DNA element beads, the beads isolated to separate bound from free protein, and the proteins analyzed on Western blots using antibodies to either ICSBP or PU-1. […] Eluted materials were separated by 10% SDS-PAGE and detected by immunoblot analysis using anti-ICSBP or anti-PU-1 antibody.

A further assay has as its system p50. As to the kind of experiment: ELISA based transcriptional factor-DNA binding activity assay, THP-1 nuclear extracts, p50. The settings on record: IFN-γ/LPS, 500 nm, 3 hrs. As to the method: Nuclear extracts were prepared from IFN-γ-primed THP-1 cells that had been treated with or without SAC and incubated in the presence or absence of 1 μM Compound 1 or 10 mM ASA. Isolation of nuclear extracts was accomplished by first suspending THP-1 cells in 20 volumes of buffer A containing 10 mM KCl, 10 mM HEPES (pH 7.9), 1 mM MgCl2, 1 mM dithiothreitol (DTT), 0.1% Nonidet p40 (NP-40), and 0.5 mM phenylmethylsulfonyl fluoride (PMSF) and then homogenizing and centrifuging at 10,000 rpm at 4° C. for 5 min. Nuclear pellets were then suspended in buffer C containing 400 mM NaCl, 20 mM HEPES pH 7.9), 15 mM MgCl2, 0.2 mM EDTA, 1 mM DTT, 25% glycerol, 1 mM PMSF, and 10 μg of leupeptin, 20 μg of pepstatin, and 10 μg of antipain per ml, incubated for 30 min at 4° C., and centrifuge at 14,000 rpm for […]. The supernatants were dialyzed against buffer D containing 100 mM NaCl, 20 mM HEPES (pH 7.9), 20% glycerol, 1 mM PMSF, and 1 mM DTT.
To understand the action of Compound 2 in NF-κB binding, several NF-κB family members, p50, c-Rel and p65 were investigated using an ELISA based transcriptional factor-DNA binding activity assay system. […]
(In an ELISA, binding on a coated surface is turned into a signal by an enzyme label.)

In another assay the test system is c-Rel. Description: Western blot of nuclear c-Rel in THP-1 cells.
Text: In order to understand this changes, the subcellular localization of NF-κB proteins was investigated using western blot analysis.
as §1
THP-1 cells were suspended in 20 volumes of buffer A containing 10 mM KCl, 10 mM HEPES (pH 7.9), 1 mM MgCl2, 1 mM dithiothreitol (DTT), 0.1% Nonidet p40 (NP-40), and 0.5 mM phenylmethylsulfonyl fluoride (PMSF) and homogenized and centrifuged at 10,000 rpm at 4 C for 5 min. […]

For `C(=NNc1nc(OCCc2ccccn2)nc(N2CCOCC2)n1)c1c[nH]c2ccccc12` [Compound 1, N-(1H-indol-3-ylmethylene)-N′-[4-morpholin-4-yl-6-(2-pyridin-2-yl-ethoxy)-[1,3,5]triazin-2-yl]-hydrazine], the “amount of ICSBP protein in nuclear extracts (FIG. 5)” value with ICSBP (THP-1 cells) is “significant reduction”. Further, in the assay on PU-1, the “levels of PU-1 (FIG. 6)” value was “unaffected”.
In the case of `Cc1cccc(C=NNc2cc(N3CCOCC3)nc(OCCc3ccccn3)n2)c1` [Compound 2, N-(3-methyl-benzylidene)-N′-[6-morpholin-4-yl-2-(2-pyridin-2-yl-ethoxy)-pyrimidin-4-yl]-hydrazine], the “binding activity of p50” value in the assay with p50 was “slightly decreased”. Also, the “amount of c-Rel protein in nuclear” value in the assay on c-Rel (500 nM, 3 hr, relative to untreated cells) was “decreased”. Moreover, in the assay on c-Rel (THP1, IFN-γ plus LPS or IFN-γ plus SAC), the “nuclear c-Rel level (FIG. 4)” value is recorded as “significantly reduced”. For the same molecule, in the assay on ICSBP, the ICSBP expression entry was “reduced” and the “ICSBP in the nuclei of treated cells” value is given as “reduced”.
